Measured values from article PMC10945555, “Improving Activity of New Arylurea Agents against Multidrug-Resistant and Biofilm-Producing Staphylococcus epidermidis” (ACS Medicinal Chemistry Letters, 2024).
Values after ≈ are worked out from the molar mass of the structure shown.

What was measured:
[1] = system: Staphylococcus epidermidis ATCC 35984; experiment: MIC, broth microdilution, MDR/BPSE reference strain; type: cell-based; settings: Staphylococcus epidermidis, ATCC35984, read-out: MIC MDR/BPSE, Staphylococcus epidermidis ATCC 35984
Text: These strains included susceptible, multidrug-resistant, and biofilm-producing strains of S. epidermidis and S. aureus (MSSE, MDR/BPSE, and MDR/BPSA, respectively). The cornerstone antibiotic linezolid served as a positive control (Table 1). The impact of structural modifications at the aryloxy fragment and the aromatic moiety bound to the propyl linker on the inhibitory activity was initially investigated. […] Further optimization focused on evaluating the impact of the type of substituent and its position on the arylsulfonamide fragment’s activity.
2 Biological assay protocols
Microbiological tests were carried out under aseptic conditions in a laminar chamber of the 2nd […]
(BioTectum 1.2, Alchem Poland). The assessment of antimicrobial activity was carried out for final compounds in the form of free bases, soluble in DMSO (Merck, Germany), at the initial […]
concentration of 1 mg/mL. […]
were provided by Cayman Chemical, USA.
The activity of all newly synthesized compounds was tested in vitro on a panel of selected reference strains from the American Type Culture Collection (ATCC) of Gram-positive […]
2.2 Effect of evaluated compounds on planktonic cells
The susceptibility of three reference bacterial strains (Staphylococcus epidermidis ATCC […]
Table S1) and 81 clinical MDR S. epidermidis (Table S2) to the tested compounds was assessed by determining the MIC value (Minimal Inhibitory Concentration) by microdilution in a liquid medium in 96-well flat-bottom cell culture plates (Nest Biotechnology Scientific, USA). The antibacterial properties of the compo unds were tested in the concentration range from 50 µg/mL to 0.1 µg/mL by making a series of double dilutions of the compound in liquid Mueller -Hinton II Broth Cation Adjusted (MHB II, BBL TM, USA) according to the European Committee on […]
Antimicrobial Susceptibility Testing guidelines (EUCAST).2,3 The determinations were performed twice. The MIC50 and MIC90 values were determined for each of the tested

[2] = system: biofilm-producing Staphylococcus epidermidis strains; experiment: Biofilm eradication (MBEC Assay Kit); type: cell-based
horse red blood cells = experiment: Hemolytic activity assay
Method: 2.3.3 Hemolytic activity assay
The hemolytic properties of tested compound were evaluated according to previously reported procedure.6 Defibrinated horse red blood cells purchased from Thermo Fisher Scientific (Germany) were washed with PBS (3000 rpm, 10 min at 4 °C) for three times followed by PBS dilution to obtain a 8% suspension. Then, 100 μL of the resulting suspensions […]
were treated with 100 μL of tested compound at the final concentration of 200 μM, and incubated at 37 °C for 1 h. Triton X-100 (2%) and PBS were used as positive and negative controls, respectively. After centrifugation at 3000 rpm for 3 min, 100 μL of the supernatants were transferred to a 96 well microtiter plate and the hemoglobin release was determined in a SpectraMax iD3 reader (Molecular Devices) by absorption at 540 nm. […]

[3] = S. epidermidis ATCC 35984 (Table S4)

CC(=O)NC[C@H]1CN(c2ccc(N3CCOCC3)c(F)c2)C(=O)O1 [linezolid, reference compound]
MIC [1]: 1.6 µg/mL (≈ 4.74 µM) | MBEC [2, 3]: 15.6 µg/mL | MBEC50 ([2]; Table S4 strains): 50 µg/mL | MBEC90 ([2]; Table S4 strains): 50 µg/mL | MBEC ([2]; clinical strain 1 (Table S4)): 31.25 µg/mL | MBEC ([2]; clinical strain 2 (Table S4)): 50 µg/mL | MBEC ([2]; clinical strain 3 (Table S4)): 50 µg/mL | MBEC ([2]; clinical strain 4 (Table S4)): 50 µg/mL | MBEC ([2]; clinical strain 5 (Table S4)): 50 µg/mL | MBEC ([2]; clinical strain 6 (Table S4)): 31.25 µg/mL | MBEC ([2]; clinical strain 7 (Table S4)): 50 µg/mL | MBEC ([2]; clinical strain 8 (Table S4)): 15.6 µg/mL | MBEC ([2]; clinical strain 9 (Table S4)): 50 µg/mL | MBEC ([2]; clinical strain 11 (Table S4)): 50 µg/mL | MBEC ([2]; clinical strain 12 (Table S4)): 50 µg/mL | MBEC ([2]; clinical strain 13 (Table S4)): 7.8 µg/mL | MBEC ([2]; clinical strain 15 (Table S4)): 50 µg/mL | MBEC ([2]; clinical strain 16 (Table S4)): 50 µg/mL | MBEC ([2]; clinical strain 17 (Table S4)): 31.25 µg/mL | MBEC ([2]; clinical strain 19 (Table S4)): 31.25 µg/mL | MBEC ([2]; clinical strain 21 (Table S4)): 50 µg/mL | MBEC ([2]; clinical strain 22 (Table S4)): 50 µg/mL | MBEC ([2]; clinical strain 23 (Table S4)): 15.6 µg/mL | MBEC ([2]; clinical strain 25 (Table S4)): 15.6 µg/mL | MBEC ([2]; clinical strain 26 (Table S4)): 50 µg/mL | MBEC ([2]; clinical strain 27 (Table S4)): 50 µg/mL | MBEC ([2]; clinical strain 28 (Table S4)): 50 µg/mL | MBEC ([2]; clinical strain 29 (Table S4)): 50 µg/mL | MBEC ([2]; clinical strain 30 (Table S4)): 7.8 µg/mL | MBEC ([2]; clinical strain 33 (Table S4)): 50 µg/mL | MBEC ([2]; clinical strain 35 (Table S4)): 50 µg/mL | MBEC ([2]; clinical strain 36 (Table S4)): 50 µg/mL | MBEC ([2]; clinical strain 37 (Table S4)): 50 µg/mL | MBEC ([2]; clinical strain 39 (Table S4)): 7.8 µg/mL | MBEC ([2]; clinical strain 40 (Table S4)): 50 µg/mL | MBEC ([2]; clinical strain 41 (Table S4)): 50 µg/mL | MBEC ([2]; clinical strain 42 (Table S4)): 50 µg/mL | MBEC ([2]; clinical strain 43 (Table S4)): 50 µg/mL | MBEC ([2]; clinical strain 44 (Table S4)): 25 µg/mL | MBEC ([2]; clinical strain 45 (Table S4)): 50 µg/mL | MBEC ([2]; clinical strain 46 (Table S4)): 50 µg/mL | MBEC ([2]; clinical strain 47 (Table S4)): 25 µg/mL | MBEC ([2]; clinical strain 49 (Table S4)): 25 µg/mL | MBEC ([2]; clinical strain 51 (Table S4)): 50 µg/mL | MBEC ([2]; clinical strain 55 (Table S4)): 50 µg/mL | MBEC ([2]; clinical strain 58 (Table S4)): 50 µg/mL | MBEC ([2]; clinical strain 59 (Table S4)): 50 µg/mL | MBEC ([2]; clinical strain 65 (Table S4)): 50 µg/mL | MBEC ([2]; clinical strain 66 (Table S4)): 25 µg/mL | MBEC ([2]; clinical strain 67 (Table S4)): 50 µg/mL | MBEC ([2]; clinical strain 70 (Table S4)): 50 µg/mL | MBEC ([2]; clinical strain 73 (Table S4)): 15.6 µg/mL | MBEC ([2]; clinical strain 74 (Table S4)): 25 µg/mL | MBEC ([2]; clinical strain 75 (Table S4)): 50 µg/mL | MBEC ([2]; clinical strain 78 (Table S4)): 15.6 µg/mL | MBEC ([2]; clinical strain 79 (Table S4)): 15.6 µg/mL

O=S(=O)(NC1CCN(CCC(Oc2ccc(C(F)(F)F)cc2)c2cccs2)CC1)c1cccc(Cl)c1 (centres unmarked) [Compound 14]
MIC [1]: ≤ 0.8 µg/mL | %hem (hemolytic activity) (horse red blood cells; 200 μM, 1 h, n = 3): 0.27% | lysis of erythrocytes (horse red blood cells; concentrations up to 200 μM): None of them caused lysis of erythrocytes | MBEC [2, 3]: 31.25 µg/mL | MBEC50 ([2]; Table S4 strains): 125 µg/mL | MBEC ([2]; clinical strain 1 (Table S4)): 125 µg/mL | MBEC ([2]; clinical strain 2 (Table S4)): 125 µg/mL | MBEC ([2]; clinical strain 3 (Table S4)): 250 µg/mL | MBEC ([2]; clinical strain 4 (Table S4)): 125 µg/mL | MBEC ([2]; clinical strain 5 (Table S4)): 125 µg/mL | MBEC ([2]; clinical strain 6 (Table S4)): 125 µg/mL | MBEC ([2]; clinical strain 7 (Table S4)): 125 µg/mL | MBEC ([2]; clinical strain 8 (Table S4)): 31.25 µg/mL | MBEC ([2]; clinical strain 9 (Table S4)): 250 µg/mL | MBEC ([2]; clinical strain 11 (Table S4)): 250 µg/mL | MBEC ([2]; clinical strain 12 (Table S4)): 125 µg/mL | MBEC ([2]; clinical strain 13 (Table S4)): 62.5 µg/mL | MBEC ([2]; clinical strain 15 (Table S4)): 125 µg/mL | MBEC ([2]; clinical strain 16 (Table S4)): 62.5 µg/mL | MBEC ([2]; clinical strain 17 (Table S4)): 62.5 µg/mL | MBEC ([2]; clinical strain 19 (Table S4)): 31.25 µg/mL | MBEC ([2]; clinical strain 21 (Table S4)): 125 µg/mL | MBEC ([2]; clinical strain 22 (Table S4)): 125 µg/mL | MBEC ([2]; clinical strain 23 (Table S4)): 15.6 µg/mL | MBEC ([2]; clinical strain 25 (Table S4)): 31.25 µg/mL | MBEC ([2]; clinical strain 26 (Table S4)): 250 µg/mL | MBEC ([2]; clinical strain 27 (Table S4)): 250 µg/mL | MBEC ([2]; clinical strain 28 (Table S4)): 125 µg/mL | MBEC ([2]; clinical strain 29 (Table S4)): 125 µg/mL | MBEC ([2]; clinical strain 30 (Table S4)): 125 µg/mL | MBEC ([2]; clinical strain 33 (Table S4)): 125 µg/mL | MBEC ([2]; clinical strain 35 (Table S4)): 125 µg/mL | MBEC ([2]; clinical strain 36 (Table S4)): 125 µg/mL | MBEC ([2]; clinical strain 37 (Table S4)): 125 µg/mL | MBEC ([2]; clinical strain 39 (Table S4)): 31.25 µg/mL | MBEC ([2]; clinical strain 40 (Table S4)): 125 µg/mL | MBEC ([2]; clinical strain 41 (Table S4)): 125 µg/mL | MBEC ([2]; clinical strain 42 (Table S4)): 125 µg/mL | MBEC ([2]; clinical strain 43 (Table S4)): 250 µg/mL | MBEC ([2]; clinical strain 44 (Table S4)): 62.5 µg/mL | MBEC ([2]; clinical strain 45 (Table S4)): 125 µg/mL | MBEC ([2]; clinical strain 46 (Table S4)): 125 µg/mL | MBEC ([2]; clinical strain 47 (Table S4)): 62.5 µg/mL | MBEC ([2]; clinical strain 49 (Table S4)): 31.25 µg/mL | MBEC ([2]; clinical strain 51 (Table S4)): 125 µg/mL | MBEC ([2]; clinical strain 55 (Table S4)): 125 µg/mL | MBEC ([2]; clinical strain 58 (Table S4)): 125 µg/mL | MBEC ([2]; clinical strain 59 (Table S4)): 125 µg/mL | MBEC ([2]; clinical strain 65 (Table S4)): 125 µg/mL | MBEC ([2]; clinical strain 66 (Table S4)): 125 µg/mL | MBEC ([2]; clinical strain 67 (Table S4)): 125 µg/mL | MBEC ([2]; clinical strain 70 (Table S4)): 250 µg/mL | MBEC ([2]; clinical strain 73 (Table S4)): 31.25 µg/mL | MBEC ([2]; clinical strain 74 (Table S4)): 125 µg/mL | MBEC ([2]; clinical strain 75 (Table S4)): 31.25 µg/mL | MBEC ([2]; clinical strain 78 (Table S4)): 31.25 µg/mL | MBEC ([2]; clinical strain 79 (Table S4)): 31.25 µg/mL
